Experimental data published in patent US9321738B2, “N-alkyltriazole compounds as LPAR antagonists” (Hoffmann-La Roche Inc., priority 2012, dated 2016).

Columns and labels:
[1] = molecular target: human recombinant LPA1 Lysophospholipid receptor (Homo sapiens (Human), UniProt Q92633); assay: Calcium flux assay using FLIPR, LPAR1 antagonist activity; assay type: cell-based; details: for IC50: ChemiScreen stable cell line, antagonist mode, calcium flux
Protocol: (§1) Calcium Flux Assay Using Fluorometric Imaging Plate Reader (FLIPR)
Cell Culture Conditions: The ChemiScreen Calcium-optimized stable cell line containing the human recombinant LPA1 Lysophospholipid receptor was purchased from Chemicon International, Inc./Millipore. The cells were cultured in DMEM-high glucose supplemented with 10% fetal bovine serum, 2 mM glutamine, 100 U/mL penicillin/100 μg/mL streptomycin, 1× non-essential amino acids, 10 mM HEPES and 0.25 mg/mL Geneticin. Cells were harvested with trypsin-EDTA and counted using ViaCount reagent. The cell suspension volume was adjusted to 2.0×10^5 cells/mL with complete growth media. Aliquots of 50 μL were dispensed into 384 well black/clear tissue culture treated plates (BD) and the microplates were placed in a 37° C. incubator overnight. The following day plates were used in the assay.
(§2) Dye Loading and Assay: Loading Buffer (FLIPR Calcium-4, Molecular Devices) was prepared by dissolving the contents of one bottle into 100 mL Hank's Balanced Salt Solution containing 20 mM HEPES and 2.5 mM probenecid. Plates were loaded onto Biotek plate washer and growth media was removed and replaced with 20 μL of Hank's Balanced Salt Solution containing 20 mM HEPES and 2.5 mM probenecid, followed by 25 μL of Loading Buffer. The plates were then incubated for 30 minutes at 37° C.
(§3) During the incubation, test compounds were prepared by adding 90 μL of HBSS/20 mM HEPES/0.1% BSA buffer to 2 μL of serially diluted compounds. To prepare serial dilutions, 10 mM stocks of compounds were prepared in 100% DMSO. The compound dilution plate was set up as follows: well #1 received 29 μL of stock compound and 31 μL DMSO. Wells 2-10 received 40 μL of DMSO. After mixing, 20 μL of solution from well #1 was transferred into well #2, followed by 1:3 serial dilutions out 10 steps. 2 μL of diluted compound was transferred into duplicate wells of 384 well “assay plate” and then 90 μL of buffer was added.
(§4) After incubation, both the cell and “assay” plates were brought to the FLIPR and 20 μL of the diluted compounds were transferred to the cell plates by the FLIPR. Compound addition was monitored by the FLIPR to detect any agonist activity of the compounds. Plates were then incubated for 30 minutes at room temperature protected from light. After the incubation, plates were returned to the FLIPR and 20 μL of 4.5× concentrated agonist was added to the cell plates. During the assay, fluorescence readings were taken simultaneously from all 384 wells of the cell plate every 1.5 seconds. Five readings were taken to establish a stable baseline, then 20 μL of sample was rapidly (30 μL/sec) and simultaneously added to each well of the cell plate. The fluorescence was continuously monitored before, during and after sample addition for a total elapsed time of 100 seconds. Responses (increase in peak fluorescence) in each well following agonist addition was determined. The initial fluorescence reading from each well, prior to ligand stimulation, was used as zero baseline value for the data from that well. The responses were expressed as % inhibition of the buffer control. The IC50 value, defined as the concentration of a compound that is required for 50% inhibition of the buffer control, was calculated by fitting the percent inhibition data for 10 concentrations to a sigmoidal dose-response (4 parameter logistic) model using Genedata Condoseo program [model 205, F(x)=(A+(B−A)/(1+((C/x)^D))))].

LPAR3 = LPAR3 (Homo sapiens (Human), UniProt Q9UBY5); assay: Calcium flux assay using FLIPR, LPAR3 antagonist activity; assay type: cell-based; details: for IC50: antagonist mode, calcium flux
Chain of LPAR3 (Q9UBY5 whole entry, species assumed): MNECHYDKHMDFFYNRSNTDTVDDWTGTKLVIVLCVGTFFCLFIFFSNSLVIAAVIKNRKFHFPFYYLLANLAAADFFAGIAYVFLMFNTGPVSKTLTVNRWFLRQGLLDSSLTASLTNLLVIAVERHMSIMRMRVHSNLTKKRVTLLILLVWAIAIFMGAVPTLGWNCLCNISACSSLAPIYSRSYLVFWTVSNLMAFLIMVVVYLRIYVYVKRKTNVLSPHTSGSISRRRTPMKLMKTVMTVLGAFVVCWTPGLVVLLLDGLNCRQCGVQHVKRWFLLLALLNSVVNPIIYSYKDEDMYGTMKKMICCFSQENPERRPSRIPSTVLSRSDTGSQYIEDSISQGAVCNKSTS
Protocol: as §1, §2, §3, §4

Chain of human recombinant LPA1 Lysophospholipid receptor (Q92633 whole entry): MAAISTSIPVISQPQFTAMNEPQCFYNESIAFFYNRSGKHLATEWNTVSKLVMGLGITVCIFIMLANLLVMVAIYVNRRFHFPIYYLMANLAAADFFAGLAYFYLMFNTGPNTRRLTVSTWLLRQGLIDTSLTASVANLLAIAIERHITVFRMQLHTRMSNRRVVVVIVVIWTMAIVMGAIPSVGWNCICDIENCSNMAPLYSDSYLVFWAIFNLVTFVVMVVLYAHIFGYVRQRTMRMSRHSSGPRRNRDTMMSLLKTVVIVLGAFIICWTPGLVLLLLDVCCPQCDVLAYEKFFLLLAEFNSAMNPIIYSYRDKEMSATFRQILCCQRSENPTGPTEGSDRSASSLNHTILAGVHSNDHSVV

Structure (SMILES) | IC50 [1] [nM] | IC50 (LPAR3) [nM] | inhibition at 30 µM ([1]; at 30 μM) [%] | inhibition at 30 µM (LPAR3) [%]
CC(C)[C@@H](C)OC(=O)Nc1c(-c2ccc(-c3ccc(C4(C(=O)O)CC4)cc3)cc2)nnn1C [Example 7, 1-{4′-[5-((R)-1,2-Dimethyl-propoxycarbonylamino)-1-methyl-1H-[1,2,3]triazol-4-yl]biphenyl-4-yl}-cyclopropanecarboxylic acid] | 70 | > 30000 | – | –
C[C@@H](OC(=O)Nc1c(-c2ccc(-c3ccc(C4(C(=O)O)CC4)cc3)cc2)nnn1C)c1cccc(C(F)(F)F)c1 [Example 6, 1-(4′-{1-Methyl-5-[(R)-1-(3-trifluoromethyl-phenyl)-ethoxycarbonylamino]-1H-[1,2,3]triazol-4-yl}-biphenyl-4-yl)-cyclopropanecarboxylic acid] | 18 | 132 | – | –
CC(OC(=O)Nc1c(-c2ccc(-c3ccc(C4(C(=O)O)CC4)cc3)cc2)nnn1C)c1cccc(C(F)(F)F)c1 (racemic) [Example 4, 1-(4′-{1-Methyl-5-[1-(3-trifluoromethyl-phenyl)-ethoxycarbonylamino]-1H-[1,2,3]triazol-4-yl}-biphenyl-4-yl)-cyclopropanecarboxylic acid] | 46 | 279 | – | –
C[C@@H](OC(=O)Nc1c(-c2ccc(Br)cc2)nnn1C)c1ccccc1 [Example 1, [5-(4-Bromo-phenyl)-3-methyl-3H-[1,2,3]triazol-4-yl]-carbamic acid (R)-1-phenyl-ethyl ester] | 21900 | > 30000 | 52.3 | –
COC(=O)C1(c2ccc(-c3ccc(-c4nnn(C)c4NC(=O)O[C@H](C)c4ccccc4)c(F)c3)cc2)CC1 [Example 10, 1-{3′-Fluoro-4′-[1-methyl-5-((R)-1-phenyl-ethoxycarbonylamino)-1H-[1,2,3]triazole-4-yl]-biphenyl-4-yl}-cyclopropanecarboxylic acid methyl ester] | > 30000 | > 30000 | – | –
C[C@@H](OC(=O)Nc1nnn(C)c1-c1ccc(-c2ccc(C3(C(=O)O)CC3)cc2)cc1)c1ccccc1 [Example 8, 1-{4′-[3-Methyl-5-((R)-1-phenyl-ethoxycarbonylamino)-3H-[1,2,3]triazol-4-yl]-biphenyl-4-yl}-cyclopropanecarboxylic acid] | > 30000 | > 30000 | – | –
C[C@@H](OC(=O)Nc1c(-c2ccc(-c3ccc(C4(C(=O)NS(C)(=O)=O)CC4)cc3)cc2)nnn1C)c1ccccc1 [Example 12, {5-[4′-(1-Methanesulfonylaminocarbonyl-cyclopropyl)-biphenyl-4-yl]-3-methyl-3H-[1,2,3]triazol-4-yl}-carbamic acid (R)-1-phenyl-ethyl ester] | 18.8 | 2310 | – | –
C[C@H](OC(=O)Nc1c(-c2ccc(-c3ccc(C4(C(=O)O)CC4)cc3)cc2)nnn1C)c1cccc(C(F)(F)F)c1 [Example 5, 1-(4′-{1-Methyl-5-[(S)-1-(3-trifluoromethyl-phenyl)-ethoxycarbonylamino]-1H-[1,2,3]triazol-4-yl}-biphenyl-4-yl)-cyclopropanecarboxylic acid] | 2660 | 6310 | – | –
C[C@@H](OC(=O)Nc1c(-c2ccc(-c3ccc(C4(C(=O)O)CC4)cc3)cc2F)nnn1C)c1ccccc1 [Example 11, 1-{3′-Fluoro-4′-[1-methyl-5-((R)-1-phenyl-ethoxycarbonylamino)-1H-[1,2,3]triazole-4-yl]-biphenyl-4-yl}-cyclopropanecarboxylic acid] | 18 | 27400 | – | 62
C[C@@H](OC(=O)Nc1c(-c2ccc(-c3ccc(CC(=O)O)cc3)cc2)nnn1C)c1ccccc1 [Example 3, {4′-[1-Methyl-5-((R)-1-phenyl-ethoxycarbonylamino)-1H-[1,2,3]triazol-4-yl]-biphenyl-4-yl}-acetic acid] | 48 | 21900 | – | 58.2
C[C@@H](OC(=O)Nc1c(-c2ccc(-c3cccc(C4(C(=O)O)CC4)c3)cc2)nnn1C)c1ccccc1 [Example 9, (R)-1-(4′-(1-Methyl-5-((1-phenylethoxy)carbonylamino)-1H-1,2,3-triazol-4-yl)biphenyl-3-yl)cyclopropanecarboxylic acid] | 4450 | 18400 | – | 62
C[C@@H](OC(=O)Nc1c(-c2ccc(C3CCC(CC(=O)O)CC3)cc2)nnn1C)c1ccccc1 (stereo partly drawn) [Example 14, (4-{4-[1-Methyl-5-((R)-1-phenyl-ethoxycarbonylamino)-1H-[1,2,3]triazol-4-yl]-phenyl}-cyclohexyl)-acetic acid] | 58 | 18600 | – | 68
C[C@@H](OC(=O)Nc1c(-c2ccc(-c3ccc(C4(C(=O)NS(C)(=O)=O)CC4)cc3)cc2)nnn1C)c1cccc(C(F)(F)F)c1 [Example 13, {5-[4′-(1-Methanesulfonylaminocarbonyl-cyclopropyl)-biphenyl-4-yl]-3-methyl-3H-[1,2,3]triazol-4-yl}-carbamic acid (R)-1-(3-trifluoromethyl-phenyl)-ethyl ester] | 24.5 | 65.7 | – | –
C[C@@H](OC(=O)Nc1c(-c2ccc(-c3ccc(C4(C(=O)O)CC4)cc3)cc2)nnn1C)c1ccccc1 [Example 2, 1-{4′-[1-Methyl-5-((R)-1-phenyl-ethoxycarbonylamino)-1H-[1,2,3]triazol-4-yl]-biphenyl-4-yl}-cyclopropanecarboxylic acid] | 18 | 2290 | – | –
